Columns and labels:
[1] = target: T1, hDHODH (Homo sapiens, UniProt Q02127); experiment: hDHODH enzyme inhibition assay (DCIP/UQ0, dihydroorotate-initiated); type: biochemical; details: for inhibition at 10 µM: compound at 10 µM, 10 nM purified hDHODH; for IC50: three independent tests, determined if inhibition at 10 μM was greater than 50%;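 on all read-outs here: recombinant hDHODH (Met30–Arg396) in HEPES pH 8.0 buffer with KCl and Triton X-100, reaction started by 500 µM dihydroorotate, inhibition from rate with inhibitor relative to uninhibited rate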
T1 construct: The plasmid pET-19b–hDHODH (Met30-Arg396) was transformed; inferred from the pET-19b vector and from purification on a chelating column with imidazole elution) (N); made in house; host or cells: E. coli BL21 (DE3)
T1 sequence (Q02127 29-395 limits assumed): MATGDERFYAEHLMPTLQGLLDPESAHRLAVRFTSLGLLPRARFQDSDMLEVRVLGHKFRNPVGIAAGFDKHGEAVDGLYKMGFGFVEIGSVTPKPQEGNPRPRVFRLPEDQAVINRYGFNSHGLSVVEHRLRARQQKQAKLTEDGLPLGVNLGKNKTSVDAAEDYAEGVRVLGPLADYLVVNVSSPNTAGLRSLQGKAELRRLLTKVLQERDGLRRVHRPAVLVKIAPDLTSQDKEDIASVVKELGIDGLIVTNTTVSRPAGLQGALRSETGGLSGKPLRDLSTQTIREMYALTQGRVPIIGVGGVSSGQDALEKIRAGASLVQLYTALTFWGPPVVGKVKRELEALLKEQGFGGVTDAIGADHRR
Protocol: The purified hDHODH was diluted into a final concentration of 10 nM with the assay buffer contained 50 mM HEPES pH 8.0, 150 mM KCl, 0.1% Triton X-100. […] The dihydroorotate was added to a final concentration of 500 μM to initiate the reaction. […] Inhibition rate was calculated from (1-Vi/V0) × 100. For the determination of the IC50 values, eight to nine different concentrations were applied. Each inhibitor concentration point was tested in triplicate. IC50 values were calculated using the sigmoidal fitting option of the program Origin 8.0.

melting point [°C]	inhibition at 10 µM [1] [%]	IC50 [1] [µM]	hDHODH inhibitory activity in words [1]	Compound
194.9 to 195.6	69	2.98		COC(=O)/C(C#N)=C1\SCC(=O)N1c1ccc(C(=O)Nc2ccccc2)cc1 [Compound 28, Methyl (Z)-2-cyano-2-(4-oxo-3-(4-(phenylcarbamoyl)phenyl)thiazolidin-2-ylidene)acetate]
274.1 to 275	47	> 10		COC(=O)/C(C#N)=C1\SCC(=O)N1c1ccc(C(=O)Nc2ccccc2C)cc1 [Compound 29, Methyl (Z)-2-cyano-2-(4-oxo-3-(4-(o-tolylcarbamoyl)phenyl)thiazolidin-2-ylidene)acetate]
231.7 to 232.5	71.3	3.01		COC(=O)/C(C#N)=C1\SCC(=O)N1c1ccc(C(=O)Nc2ccc(F)cc2)cc1 [Compound 30, Methyl (Z)-2-cyano-2-(3-(4-((4-fluorophenyl)carbamoyl)phenyl)-4-oxothiazolidin-2-ylidene)acetate]
280.1 to 280.9	52.7	7.5		COC(=O)/C(C#N)=C1\SCC(=O)N1c1ccc(C(=O)Nc2ccc(Cl)cc2)cc1 [Compound 32, Methyl (Z)-2-(3-(4-((4-chlorophenyl)carbamoyl)phenyl)-4-oxothiazolidin-2-ylidene)-2-cyanoacetate]
306.2 to 307.1	42	> 10		COC(=O)/C(C#N)=C1\SCC(=O)N1c1ccc(C(=O)Nc2ccc(Br)cc2)cc1 [Compound 33, Methyl (Z)-2-(3-(4-((4-bromophenyl)carbamoyl)phenyl)-4-oxothiazolidin-2-ylidene)-2-cyanoacetate]
315.8 to 316.6	38.1	> 10		COC(=O)/C(C#N)=C1\SCC(=O)N1c1ccc(C(=O)Nc2ccc(I)cc2)cc1 [Compound 34, Methyl (Z)-2-cyano-2-(3-(4-((4-iodophenyl)carbamoyl)phenyl)-4-oxothiazolidin-2-ylidene)acetate]
285 to 286	38.2	> 10	inactive	COC(=O)/C(C#N)=C1\SCC(=O)N1c1ccc(C(=O)Nc2ccc3ccccc3c2)cc1 [Compound 38, Methyl (Z)-2-cyano-2-(3-(4-(naphthalen-2-ylcarbamoyl)phenyl)-4-oxothiazolidin-2-ylidene)acetate]
117.3 to 118.1	39.9	> 10	inactive	COC(=O)/C(C#N)=C1\SCC(=O)N1c1ccc(C(=O)NCc2ccccc2)cc1 [Compound 39, Methyl (Z)-2-(3-(4-(benzylcarbamoyl)phenyl)-4-oxothiazolidin-2-ylidene)-2-cyanoacetate]
261.8 to 262.5	34.5	> 10		COC(=O)/C(C#N)=C1\SCC(=O)N1c1ccc(C(=O)Nc2ccccc2C(=O)O)cc1 [Compound 40, (Z)-2-(4-(2-(1-Cyano-2-methoxy-2-oxoethylidene)-4-oxothiazolidin-3-yl)benzamido)benzoic acid]
205.7 to 206.6	23.5	> 10		COC(=O)/C(C#N)=C1\SCC(=O)N1c1ccc(C(=O)Nc2cccc(C(=O)O)c2)cc1 [Compound 41, (Z)-3-(4-(2-(1-Cyano-2-methoxy-2-oxoethylidene)-4-oxothiazolidin-3-yl)benzamido)benzoic acid]

The remaining lines, values behind:

Compound	melting point [°C]	inhibition at 10 µM [1] [%]	IC50 [1] [µM]	hDHODH inhibitory activity in words [1]
COC(=O)/C(C#N)=C1\SCC(=O)N1c1ccc(-c2cccc(C#N)c2)cc1F [Compound 16, Methyl (Z)-2-cyano-2-(3-(3’-cyano-3-fluoro-[1,1’-biphenyl]-4-yl)-4-oxothiazolidin-2-ylidene)acetate]	191.2 to 191.3	50.2	8.39	
COC(=O)/C(C#N)=C1\SCC(=O)N1c1ccc(-c2cccc([N+](=O)[O-])c2)cc1F [Compound 17, Methyl (Z)-2-cyano-2-(3-(3-fluoro-3’-nitro-[1,1’-biphenyl]-4-yl)-4-oxothiazolidin-2-ylidene) acetate]	179.2 to 179.9	50.7	4.35	
COC(=O)/C(C#N)=C1\SCC(=O)N1c1ccc(Oc2ccccc2OC)cc1 [Compound 20, Methyl (Z)-2-cyano-2-(3-(4-(2-methoxyphenoxy)phenyl)-4-oxothiazolidin-2-ylidene)acetate]	181.2 to 182.1	44.7	> 10	
COC(=O)/C(C#N)=C1\SCC(=O)N1c1ccc(Oc2cccc(C(F)(F)F)c2)cc1 [Compound 21]	159.7 to 161.3	29.7	> 10	
COC(=O)/C(C#N)=C1\SCC(=O)N1c1ccc(Oc2ccc(C(C)(C)C)cc2)cc1 [Compound 22, Methyl (Z)-2-(3-(4-(4-(tert-butyl)phenoxy)phenyl)-4-oxothiazolidin-2-ylidene)-2-cyanoacetate]	212.9 to 213.9	18.1	> 10	
COC(=O)/C(C#N)=C1\SCC(=O)N1c1cccc(Oc2ccccc2)c1 [Compound 23, Methyl (Z)-2-cyano-2-(4-oxo-3-(3-phenoxyphenyl)thiazolidin-2-ylidene)acetate]	183.4 to 184.3	34.4	> 10	inactive
COC(=O)/C(C#N)=C1\SCC(=O)N1c1ccc(OCc2cccc(C(=O)O)c2)cc1 [Compound 26, (Z)-3-((4-(2-(1-Cyano-2-methoxy-2-oxoethylidene)-4-oxothiazolidin-3-yl)phenoxy)methyl)benzoic acid]	233.2 to 234.1	36.2	> 10	
COC(=O)/C(C#N)=C1\SCC(=O)N1c1ccc(C(=O)Nc2ccc(F)c(C#N)c2)cc1 [Compound 31, Methyl (Z)-2-cyano-2-(3-(4-((3-cyano-4-fluorophenyl)carbamoyl)phenyl)-4-oxothiazolidin-2-ylidene)acetate]	264.2 to 265.1	53.6	8.56	
COC(=O)/C(C#N)=C1\SCC(=O)N1c1ccc(C(=O)Nc2ccc(C(F)(F)F)cc2)cc1 [Compound 35, Methyl (Z)-2-cyano-2-(4-oxo-3-(4-((4-(trifluoromethyl)phenyl)carbamoyl)phenyl)thiazolidin-2-ylidene) acetate]	264.2 to 265.1	24.5	> 10	
COC(=O)/C(C#N)=C1\SCC(=O)N1c1ccc(C(=O)Nc2ccc(OC)cc2)cc1 [Compound 36, Methyl (Z)-2-cyano-2-(3-(4-((4-methoxyphenyl)carbamoyl)phenyl)-4-oxothiazolidin-2-ylidene)acetate]	268.9 to 269.7	55.4	5.01	
COC(=O)/C(C#N)=C1\SCC(=O)N1c1ccc(C(=O)Nc2ccc(C(C)(C)C)cc2)cc1 [Compound 37, Methyl (Z)-2-(3-(4-((4-(tert-butyl)phenyl)carbamoyl)phenyl)-4-oxothiazolidin-2-ylidene)-2-cyanoacetate]	256.1 to 257	75.6	1.45	
